According to patent US20240238423A9, “TETRAHYDROISOQUINOLINE HETEROBIFUNCTIONAL BCL-XL DEGRADERS” (Treeline Biosciences, Inc., priority 2022, published 2024):
Read-outs that look alike come from different tables or passages of the source.

Target: T1, Human BCL-XL protein (N-terminal HiBiT tagged BCL-XL in HT1080 cells) (Homo sapiens, UniProt Q07817)
T1 construct: expressed in transfected cells; host or cells: HT-1080 (ATCC CCL-121), stably transduced with lentivirus pLV-UBC-N-HiBiT-BCL-XL-PGK-puro and selected with puromycin
T1 sequence (Q07817 whole entry): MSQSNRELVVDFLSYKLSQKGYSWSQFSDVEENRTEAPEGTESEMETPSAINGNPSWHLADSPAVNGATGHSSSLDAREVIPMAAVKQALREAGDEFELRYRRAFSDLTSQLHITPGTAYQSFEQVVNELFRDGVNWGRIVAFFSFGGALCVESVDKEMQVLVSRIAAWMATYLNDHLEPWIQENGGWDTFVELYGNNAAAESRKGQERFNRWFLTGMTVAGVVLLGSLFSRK
Experiment: HiBiT based degradation assay
Format: cell-based
Conditions: HT1080 cells expressing HiBiT-BCL-XL; for Ymin (24 h) / Ymin (6 h): BCL-XL degradation normalized with DMSO control; for DC50: BCL-XL degradation
Text: Human BCL-XL protein coding open reading frame fused with N-terminal HiBiT coding sequence was synthesized from Integrated DNA Technologies (IDT). Next, N-HiBiT-BCL-XL sequence was cloned into pLV-UBC-PGK-Puro, a lentivirus plasmid purchased from Vectorbuilder, to generate pLV-UBC-N-HiBiT-BCL-XL-PGK-puro. Lentiviral particles were generated from Lenti-X™ 293T cells (Clontech) by co-transfection of pLV-UBC-N-HiBiT-BCL-XL-PGK-puro plasmids and lentiviral packaging plasmid mix (Cellecta). HT-1080 [HT1080](ATCC CCL-121) cells were infected with the lentivirus, and HT1080 cells stably integrated with the lentiviral vectors were established by incubation with 1 μg/mL puromycin (Thermofisher).
HT1080 cells expressing N-terminal HiBiT tagged BCL-XL were dispensed into a 384-well plate pre-spotted with compounds at varying concentrations. Three thousand cells were seeded into each well in 40 μL of RPMI 1640 media. […] After incubation, luminescence was read on a PHERAstar FSX Plate Reader (BMG). BCL-XL degradation at each indicated concentration was normalized with the DMSO control. The BCL-XL degradation curves were plotted using a four-parameter logistic model. For compounds displaying hook effects, the curve fitting was performed using the bottom point of the hook curves (i.e., the point of Ymin) as the bottom plateau to calculate EC50.

| Compound | Ymin (24 h) | DC50 (24 h, read-out: EC50 (24 h)) | Ymin (6 h) | DC50 (6 h, read-out: EC50 (6 h)) |
| --- | --- | --- | --- | --- |
| Cc1c(OCCC2CCN(CC(=O)Nc3cccc4c(C5CCC(=O)NC5=O)nn(C)c34)CC2)cccc1-c1ccc(N2CCc3cccc(C(=O)Nc4nc5ccccc5s4)c3C2)nc1C(=O)O (stereo not shown) [Compound 101, 6-[8-(1,3-benzothiazol-2-ylcarbamoyl)-3,4-dihydro-1H-isoquinolin-2-yl]-3-[3-[2-[1-[2-[[3-(2,6-dioxo-3-piperidyl)-1-methyl-indazol-7-yl]amino]-2-oxo-ethyl]-4-piperidyl]ethoxy]-2-methyl-phenyl]pyridine-2-carboxylic acid] | B (50% ≤ Ymin < 70%) | < 100 nM | B (50% ≤ Ymin < 70%) | < 100 nM |
| Cc1c(Oc2ccc(CCC(=O)Nc3ccc(C4CCC(=O)NC4=O)cc3)cc2)cccc1-c1ccc(N2CCc3cccc(C(=O)Nc4nc5ccccc5s4)c3C2)nc1C(=O)O (stereo not shown) [Compound 102, 6-[8-(1,3-benzothiazol-2-ylcarbamoyl)-3,4-dihydro-1H-isoquinolin-2-yl]-3-[3-[4-[3-[4-(2,6-dioxo-3-piperidyl)anilino]-3-oxo-propyl]phenoxy]-2-methyl-phenyl]pyridine-2-carboxylic acid] | – | – | B (50% ≤ Ymin < 70%) | < 100 nM |
| Cc1c(OCCN2CCN(CC(=O)Nc3ccc4c(C5CCC(=O)NC5=O)nn(C)c4c3)CC2)cccc1-c1ccc(N2CCc3cccc(C(=O)Nc4nc5ccccc5s4)c3C2)nc1C(=O)O (stereo not shown) [Compound 103, 6-[8-(1,3-benzothiazol-2-ylcarbamoyl)-3,4-dihydro-1H-isoquinolin-2-yl]-3-[3-[2-[4-[2-[[3-(2,6-dioxo-3-piperidyl)-1-methyl-indazol-6-yl]amino]-2-oxo-ethyl]piperazin-1-yl]ethoxy]-2-methyl-phenyl]pyridine-2-carboxylic acid] | A (Ymin < 50%) | < 100 nM | A (Ymin < 50%) | < 100 nM |
| Cc1c(OCCCN2CCN(CC(=O)Nc3ccc4c(C5CCC(=O)NC5=O)nn(C)c4c3)CC2)cccc1-c1ccc(N2CCc3cccc(C(=O)Nc4nc5ccccc5s4)c3C2)nc1C(=O)O (stereo not shown) [Compound 104, 6-[8-(1,3-benzothiazol-2-ylcarbamoyl)-3,4-dihydro-1H-isoquinolin-2-yl]-3-[3-[3-[4-[2-[[3-(2,6-dioxo-3-piperidyl)-1-methyl-indazol-6-yl]amino]-2-oxo-ethyl]piperazin-1-yl]propoxy]-2-methyl-phenyl]pyridine-2-carboxylic acid] | A (Ymin < 50%) | < 100 nM | B (50% ≤ Ymin < 70%) | < 100 nM |
| Cc1c(OCCCN2CCN(CC(=O)Nc3cccc4c(C5CCC(=O)NC5=O)nn(C)c34)CC2)cccc1-c1ccc(N2CCc3cccc(C(=O)Nc4nc5ccccc5s4)c3C2)nc1C(=O)O (stereo not shown) [Compound 105, 6-[8-(1,3-benzothiazol-2-ylcarbamoyl)-3,4-dihydro-1H-isoquinolin-2-yl]-3-[3-[3-[4-[2-[[3-(2,6-dioxo-3-piperidyl)-1-methyl-indazol-7-yl]amino]-2-oxo-ethyl]piperazin-1-yl]propoxy]-2-methyl-phenyl]pyridine-2-carboxylic acid] | B (50% ≤ Ymin < 70%) | 100 to 1000 nM | B (50% ≤ Ymin < 70%) | < 100 nM |
| Cc1c(OCCC2CCN(CC(=O)Nc3ccc4c(C5CCC(=O)NC5=O)nn(C)c4c3)CC2)cccc1-c1ccc(N2CCc3cccc(C(=O)Nc4nc5ccccc5s4)c3C2)nc1C(=O)O (stereo not shown) [Compound 106, 6-[8-(1,3-benzothiazol-2-ylcarbamoyl)-3,4-dihydro-1H-isoquinolin-2-yl]-3-[3-[2-[1-[2-[[3-(2,6-dioxo-3-piperidyl)-1-methyl-indazol-6-yl]amino]-2-oxo-ethyl]-4-piperidyl]ethoxy]-2-methyl-phenyl]pyridine-2-carboxylic acid] | A (Ymin < 50%) | < 100 nM | A (Ymin < 50%) | < 100 nM |

Now from value to compound:

| Ymin (24 h) | DC50 (24 h, read-out: EC50 (24 h)) | Ymin (6 h) | DC50 (6 h, read-out: EC50 (6 h)) | Compound |
| --- | --- | --- | --- | --- |
| A (Ymin < 50%) | < 100 nM | – | – | Cc1c(OCC[C@H]2CCC3(CCN(CC(=O)Nc4ccc5c(C6CCC(=O)NC6=O)nn(C)c5c4)CC3)C2)cccc1-c1ccc(N2CCc3cccc(C(=O)Nc4nc5ccccc5s4)c3C2)nc1C(=O)O (stereo in doubt) [Compound 272a, 6-(8-(benzo[d]thiazol-2-ylcarbamoyl)-3,4-dihydroisoquinolin-2(1H)-yl)-3-(3-(2-((2S)-8-(2-((3-(2,6-dioxopiperidin-3-yl)-1-methyl-1H-indazol-6-yl)amino)-2-oxoethyl)-8-azaspiro[4.5]decan-2-yl)ethoxy)-2-methylphenyl)picolinic acid] |
| A (Ymin < 50%) | < 100 nM | – | – | Cc1cc(O[C@H](C)CCC2CCN(CC(=O)Nc3ccc4c(C5CCC(=O)NC5=O)nn(C)c4c3)CC2)ccc1-c1ccc(N2CCc3cccc(C(=O)Nc4nc5ccccc5s4)c3C2)nc1C(=O)O (stereo in doubt) [Compound 276a, 6-[8-(1,3-benzothiazol-2-ylcarbamoyl)-3,4-dihydro-1H-isoquinolin-2-yl]-3-[4-[(1R)-3-[1-[2-[[3-(2,6-dioxo-3-piperidyl)-1-methyl-indazol-6-yl]amino]-2-oxo-ethyl]-4-piperidyl]-1-methyl-propoxy]-2-methyl-phenyl]pyridine-2-carboxylic acid] |
| A (Ymin < 50%) | < 100 nM | – | – | Cc1cc(O[C@@H](C)CCC2CCN(CC(=O)Nc3ccc4c(C5CCC(=O)NC5=O)nn(C)c4c3)CC2)ccc1-c1ccc(N2CCc3cccc(C(=O)Nc4nc5ccccc5s4)c3C2)nc1C(=O)O (stereo in doubt) [Compound 276b, 6-[8-(1,3-benzothiazol-2-ylcarbamoyl)-3,4-dihydro-1H-isoquinolin-2-yl]-3-[4-[(1S)-3-[1-[2-[[3-(2,6-dioxo-3-piperidyl)-1-methyl-indazol-6-yl]amino]-2-oxo-ethyl]-4-piperidyl]-1-methyl-propoxy]-2-methyl-phenyl]pyridine-2-carboxylic acid] |
| A (Ymin < 50%) | < 100 nM | – | – | Cc1c(OCC[C@H]2CC23CCN(CC(=O)Nc2ccc4c(C5CCC(=O)NC5=O)nn(C)c4c2)CC3)cccc1-c1ccc(N2CCc3cccc(C(=O)Nc4nc5ccccc5s4)c3C2)nc1C(=O)O (stereo in doubt) [Compound 289b, 6-(8-(benzo[d]thiazol-2-ylcarbamoyl)-3,4-dihydroisoquinolin-2(1H)-yl)-3-(3-(2-((1R)-6-(2-((3-(2,6-dioxopiperidin-3-yl)-1-methyl-1H-indazol-6-yl)amino)-2-oxoethyl)-6-azaspiro[2.5]octan-1-yl)ethoxy)-2-methylphenyl)picolinic acid] |
| C (Ymin ≥ 70%) | 1000 to 10000 nM | C (Ymin ≥ 70%) | 1000 to 10000 nM | Cc1c(Oc2ccc(CCC(=O)Nc3ccc4c(C5CCC(=O)NC5=O)nn(C)c4c3)cc2)cccc1-c1ccc(N2CCc3cccc(C(=O)Nc4nc5ccccc5s4)c3C2)nc1C(=O)O (stereo not shown) [Compound 107, 6-[8-(1,3-benzothiazol-2-ylcarbamoyl)-3,4-dihydro-1H-isoquinolin-2-yl]-3-[3-[4-[3-[[3-(2,6-dioxo-3-piperidyl)-1-methyl-indazol-6-yl]amino]-3-oxo-propyl]phenoxy]-2-methyl-phenyl]pyridine-2-carboxylic acid] |
